Reference: patent US7416741B2, “Copper lowering treatment of inflammatory and fibrotic diseases” (The Regents of the University of Michigan, priority 2002, dated 2008)

Assays:
[1] = test system: Wilson's disease patients; assay: Open label study of TM for initial treatment of neurologically presenting Wilson's disease patients; assay type: in vivo, human
From the text: The results in the first patient studied can be used to illustrate several points. For the first seven days, the patient received TM only with meals (tid with meals). This produced the immediate negative copper balance one would expect from the first mechanism of action (blockade of copper absorption when given with meals). After the first seven days, TM was given between meals as well (tid with meals, and tid between meals). This led to the immediate rise in plasma copper expected from absorption of TM into the blood, and formation of a complex of copper, TM, and albumin. The copper complexed with TM and albumin is unavailable for cellular uptake, and this copper is therefore non-toxic. There is a 1:1 stochiometric relationship between molybdenum and copper in this complex. Knowing the molybdenum level in the blood, and the ceruloplasmin level (ceruloplasmin also contains copper that is non-toxic), one can calculate how much of the plasma copper is not bound to one or the other. This so-called “free copper” (non-ceruloplasmin plasma copper) is the potentially toxic copper. When reduced to zero, the plasma copper-molybdenum “gap” is closed. This took 16 days in the first patient (9 days after adding the between meal doses). Since in the brain (and in other organs), free copper is in equilibrium with the blood, decreasing the blood free copper to a low level begins the process of lowering the brain level of free (toxic) copper.
The inventors have treated initially 56 Wilson's disease patients with TM, all of whom presented with neurological or psychiatric disease, in an open label study. These patients were all diagnosed by standard criteria. […] Some of them were treated briefly with other agents prior to this trial. Two patients had psychiatric but not neurological symptoms.
With three exceptions in the earliest part of the study, all patients received a dose of 20 mg tid with meals, or qid with three meals and a snack. Thus, the only difference between a patient receiving 120 mg and 140 mg total dose is that the former was receiving 20 mg tid, or 60 mg, with meals, and the latter was receiving 20 mg qid, or 80 mg with meals plus a snack. The rest of the total daily dose was divided up into three equal doses and given between meals.
Measuring trichloracetic acid (TCA) soluble copper of the plasma is somewhat useful in assessing the impact of TM therapy on copper metabolism in Wilson's disease. Generally, a high proportion of plasma copper in these patients is TCA soluble (it averaged 56% in patients which is 27 p.g/dl). All of the non-ceruloplasmin plasma copper is TCA soluble, and a somewhat variable portion of the ceruloplasmin copper is also TCA soluble. Because the ceruloplasmin levels are usually rather low in Wilson's disease, most of the plasma copper is TCA soluble. The copper in the TM/albumin/copper complex in the blood is TCA insoluble. Thus, as therapy proceeds, the fraction of the plasma copper that is TCA soluble becomes smaller. […] The TCA soluble fraction cannot be used as an absolute endpoint, for example attempting to reduce it to zero, because a small and somewhat variable soluble fraction is usually present due to plasma ceruloplasmin. However, the significant mean reduction from 27 to 15 p.g/dl illustrates the beneficial effect that TM therapy has on the status of the potentially toxic plasma copper in these patients. Further evidence of the desirable impact of TM therapy on copper metabolism is shown by reduction of mean urine copper values during the latter part of TM therapy, compared to baseline values.
TM has a quick and favorable impact on copper metabolism, reducing the levels of potentially toxic copper of the blood and as contemplated the rest of the body as well. The primary clinical objective in treatment of Wilson's disease is to gain control over copper toxicity while not allowing worsening of the disease or symptoms. […]

TGFβ = assay: Lung TGFβ levels (ELISA or PAI-1 promoter-luciferase cell line), bleomycin model; assay type: in vivo, mouse
Experimental: Lung TGFβ levels were measured using either ELISA with a kit from R&D Systems (Minneapolis, Minn.), or using a cell line stably transfected with a plasminogen activator inhibitor-1 (PAI-1) promoter-luciferase construct (M Abe et al., Analytical Biochemistry, 216:276-284 [1994]). Briefly for the latter assay, mink lung epithelial cells transfected with the PAI-1 promoter construct were incubated with the indicated activated (by pre-acidification) test samples diluted (1:2 dilution) in fresh media. After a 24 hr incubation, the cells were lysed with reporter lysis buffer (Promega, Madison, Wis.). Luciferase activity was measured by the luciferase assay system (Promega) and read using a Reporter microplate luminometer (Turner Designs, Sunnyvale, Calif.). Human TGFβ1 (R&D Systems) was used as a standard.

Con A mouse model = assay: Liver histological examination in the Con A mouse model; assay type: in vivo; settings: Ex 4; Con A mice
Experimental: A study was carried out in a mouse model of concanavilin A (Con A) production of liver cirrhosis. There were four experimental groups of several mice each. […] The Con A was injected intravenously once weekly into mice (0.3 mg/mouse/week), and produced a hepatitis, which is manifested by an increasing level of alanine transaminase (ALT) enzymes in the blood. The TM was given once daily by […] in a dose of 0.7 mg/mouse/day beginning 7 days prior to ConA treatment. During days 9 to 11 after Con A, the TM-treated mice received 1.2 mg of TM daily, to ensure adequate lowering of copper levels, and then received 0.7 mg daily for the duration of the study. A blood sample was obtained 28 days after ConA treatment, and the mice were sacrificed on the same day. Serum alanine transaminase (ALT) was measured in Sigma-Frankel (SF) units, where one unit is the formation of 0.000482 umoles of glutamate/minute at pH 7.5 and 25 ° C.

TNFα = assay: Plasma TNFα in Con A treated mice; assay type: in vivo, mouse; settings: Ex 5 Exp 3; TM from 5 days before first of two Con A injections; 2 hrs after last; p=0.03
From the text: In a third experiment, two Con A injections one week apart were given to 10 mice. Five of the mice had begun TM treatment 5 days prior to the first injection. All the mice were sacrificed 2 hrs after the last Con A injection.

[2] = test system: vascular endothelial growth factor (VEGF); assay: Retinopathy of prematurity in newborn mice; assay type: in vivo, mouse; settings: hyperoxia then room air
Experimental: The present invention also contemplates the antiangiogenic therapeutic effects of TM in diseases of neovascularization besides cancer (e.g., animal models of retinopathy). In retinopathy of prematurity, newborn mice exposed to hyperoxia for five days develop a marked retinopathy after four days exposure to room air, with a peak of a major angiogenic stimulus, vascular endothelial growth factor (VEGF), at 24 hours.

[3] = among the seven anemia patients

Q: Which results are given for `[SH-].[SH-].[S]=[Mo]=[S]` [TM, tetrathiomolybdate]?
A: patients with reversible anemia/bone marrow depression ([1]; 56 patients): seven; patients with elevation of transaminase values (serum AST and ALT) ([1]; all treated with 150 mg TM/day or higher): four of the patients; patients with reduction in platelet count [1, 3]: Three of the patients; patients with reduction in white blood cell count [1, 3]: four of the patients; fall in hemoglobin ([1]; average in the seven anemia patients): 3.4%; overtreatment incidence ([1]; dose of 180 mg/day or over): 6 of 37; overtreatment incidence ([1]; dose of 150 or lower): 1 of 13; patients with change of more than 5 units in quantitative neurological exam (significant worsening) ([1]; during weeks of TM administration, two patients): 4%; time to close the plasma copper-molybdenum gap (free copper reduced to zero) ([1]; first patient, TM tid with meals, from day 7 also tid between meals): 16 days; quantitative speech exam scores ([1]; initial 8 weeks of TM therapy): No patient shows significant (more than 2.0 units) reduction in scores; lung TGFβ protein level (ELISA), bleomycin-induced increase (TGFβ; Ex 2 Exp 1, bleomycin/TM, day 7, p=0.06): inhibited this increase; lung TGFβ protein levels (PAI-1 promoter-luciferase), bleomycin-induced increase (TGFβ; Ex 2 Exp 2, TM from day 5, day 21, not statistically significant): completely inhibited this increase; lung TGFβ protein levels (ELISA) (TGFβ; Ex 2 Exp 3, TM started 5 days prior to bleomycin (Bleo/TM-5), p=0.04): significantly inhibited; histological examination: inflammation and early bridging fibrosis (Con A mouse model): not in the TM treated animals; Plasma levels of TNFα (TNFα): significantly lower; VEGF peak [2]: strong inhibition; retinal neovascularization [2]: dramatic reduction
